From patent publication US20220041641A1, “QUATERNARY AMMONIUM SALTS AS INHIBITORS OF TRIMETHYLAMINE PRODUCTION” (Senda Biosciences, Inc., priority 2018, published 2022)
Structures can show the parent of a compound that is named as a salt.

Experiments:
[1] = type: in vitro ADME; conditions: simulated gi fluid, 1 µM, pH 1.6
Experimental: This assay was used to assess the stability of a conjugate in a stomach.
Medium was prepared by dissolving 2 g of sodium chloride in 0.6 L in ultrapure water (MilliQ®, Millipore Sigma, Darmstadt, Germany). The pH was adjusted to 1.6 with 1N hydrochloric acid, and the volume was then adjusted to 1 L with purified water.
60 mg FaSSIF powder (Biorelevant™, London, UK) were dissolved in 500 mL buffer (above). Pepsin was added (0.1 mg/mL) (Millipore Sigma, Darmstadt, Germany), and the solution was stirred. The resulting SGF media were used fresh for each experiment.
Test compounds were dissolved in DMSO stock to 1 mM. An aliquot of the DMSO stock solution was removed and diluted in the SGF Media in 15 mL falcon tubes to generate a total compound concentration of 1 μM. A 1 mL aliquot was immediately removed and diluted once with 1 volume of acetonitrile for T0 timepoint. The mixture was sealed and mixed at 37° C. in an incubator. Aliquots (1 mL) were removed at regular intervals and immediately quenched by the addition of 1 volume of acetonitrile. The resulting samples were analyzed by LCMS to determine degradation rates in SGF.

[2] = type: in vitro ADME; conditions: 1 µM
Experimental: This assay was used to assess the stability of a conjugate in a large intestine.
All experiments were performed in an anaerobic chamber containing 90% nitrogen, 5% hydrogen and 5% carbon dioxide. Colonic material was resuspended as a slurry (15% w/v final concentration) in pre-reduced, anaerobically sterilized dilution blanks (Anaerobe Systems AS-908). The colonic material was then inoculated into 96 well plates containing YCFAC media (Anaerobe Systems AS-680, 6.7 μL slurry into 1 mL total media). A compound was added to each individual well to reach a final analyte concentration of 1 μM, and the material was mixed by pipetting. Each sample was removed after set timepoints (0, 120, 240, 480, 1440, 2880 minutes after initiation of the assay), quenched with acetonitrile containing internal standard, and analyzed by LCMS.

[3] = type: in vitro ADME; conditions: simulated gi fluid, 1 µM, pH 6.7
Experimental: This assay was used to assess the stability of a conjugate in a small intestine.
Phosphate buffer was prepared by dissolving 0.42 g of sodium hydroxide pellets and 3.95 g of monobasic sodium phosphate monohydrate and 6.19 g of sodium chloride in ultrapure water (MilliQ®, Millipore Sigma, Darmstadt, Germany). The pH was adjusted to 6.7 using aq. HCl and aq. NaOH, as necessary, and the solution was diluted with ultrapure water to produce 1 L of the pH 6.7 buffer.
112 mg FaSSIF powder (Biorelevant™, London, UK) was dissolved in 50 mL of the pH 6.7 buffer. 2 to 3 mL of the resulting solution were then added to 500 mg pancreatin (Millipore Sigma, Darmstadt, Germany). The resulting mixture was agitated by finger tapping the vessel containing the mixture until milky suspension formed. At this time, the remainder of the 50 mL FaSSiF/pH 6.7 buffer solution was added. The resulting suspension was flipped upside down 10 times to produce SIF, which was used fresh.
Test compounds were dissolved in DMSO stock to 1 mM. An aliquot of the DMSO stock solution was removed and diluted in the SIF media in 15 mL falcon tubes to produce a mixture with a tested compound concentration of 1 μM. A 1 mL aliquot was immediately removed and diluted once with 1 volume of acetonitrile for T0 timepoint. The mixture was sealed and agitated at 37° C. in an incubator. Aliquots (1 mL) were removed at regular intervals and immediately quenched by the addition of 1 volume of acetonitrile. The resulting samples were analyzed by LCMS to determine degradation rates.

[4] = target: CutC from Proteus mirabilis (Proteus mirabilis, UniProt B4EYG1); experiment: Cell-based assay for TMA production from a native producer (P. mirabilis); conditions: d9-TMA from 1 mM d9-choline, 5 h, 37° C.; value 10 given when no fit or % TMA remaining at 10 μM higher than 15%; read-out: Average IC50 Whole cell P. mirabilis
Method in brief: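 Overnight anaerobic cultures of P. mirabilis or C. sporogenes, grown in BHI with 1 mM choline, were diluted and given 1 mM (trimethyl-d9)-choline plus compound at 10 μM final. After 5 h at 37° C., d9-TMA was quantified by LCMS.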

CutC/D enzyme = experiment: Acute mouse model (plasma TMAO on choline diet); type: in vivo, male C57BL/6 mice
Method in brief: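 Male C57BL/6 mice fed a diet with 1.0% choline (g/g) received compound in water by oral gavage once daily on days 1–3. Plasma taken 20 h after the last dose was protein-precipitated and TMAO quantified by LC-MS/MS against a 0.05-100 μM d9-TMAO calibration curve in control plasma.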

in vivo = experiment: in vivo; design: species or system Sprague-Dawley rats; conditions: Sprague-Dawley, rat
Experimental: Sprague-Dawley rats (three rats per compound) were treated with a single intravenous (IV) 1 mg/kg dose or orally (PO) a single 10 mg/kg dose. Plasma concentrations of the conjugates were determined by LCMS at 5 minutes, 15 minutes, 30 minutes, 1 hour, 2 hours, 4 hours, 8 and 24 hours post compound administration. […] In addition, the plasma exposure and bioavailability of the active agent of was lower when dosed as a conjugate instead of the active agent alone.

[5] = Pharmacokinetic study of colon contents and plasma after oral dose of conjugate; type: in vivo, male C57B3L/6 mice; conditions: for Cmax: male
Experimental: To confirm that the active agent component of the conjugate is released in the gastrointestinal tract, a pharmacokinetic study was conducted in male C57B3L/6 mice examining conjugate and active agent of concentrations in both the colon contents and plasma after oral dose of conjugate. Conjugate and active agent of were quantified by LCMS at 0 (pre-dose), 0.25, 0.5, 1, 2, 4, 6, 8, 12, and 24 hours post-dose of compound.

Chain of CutC from Proteus mirabilis (B4EYG1 entry or part of it): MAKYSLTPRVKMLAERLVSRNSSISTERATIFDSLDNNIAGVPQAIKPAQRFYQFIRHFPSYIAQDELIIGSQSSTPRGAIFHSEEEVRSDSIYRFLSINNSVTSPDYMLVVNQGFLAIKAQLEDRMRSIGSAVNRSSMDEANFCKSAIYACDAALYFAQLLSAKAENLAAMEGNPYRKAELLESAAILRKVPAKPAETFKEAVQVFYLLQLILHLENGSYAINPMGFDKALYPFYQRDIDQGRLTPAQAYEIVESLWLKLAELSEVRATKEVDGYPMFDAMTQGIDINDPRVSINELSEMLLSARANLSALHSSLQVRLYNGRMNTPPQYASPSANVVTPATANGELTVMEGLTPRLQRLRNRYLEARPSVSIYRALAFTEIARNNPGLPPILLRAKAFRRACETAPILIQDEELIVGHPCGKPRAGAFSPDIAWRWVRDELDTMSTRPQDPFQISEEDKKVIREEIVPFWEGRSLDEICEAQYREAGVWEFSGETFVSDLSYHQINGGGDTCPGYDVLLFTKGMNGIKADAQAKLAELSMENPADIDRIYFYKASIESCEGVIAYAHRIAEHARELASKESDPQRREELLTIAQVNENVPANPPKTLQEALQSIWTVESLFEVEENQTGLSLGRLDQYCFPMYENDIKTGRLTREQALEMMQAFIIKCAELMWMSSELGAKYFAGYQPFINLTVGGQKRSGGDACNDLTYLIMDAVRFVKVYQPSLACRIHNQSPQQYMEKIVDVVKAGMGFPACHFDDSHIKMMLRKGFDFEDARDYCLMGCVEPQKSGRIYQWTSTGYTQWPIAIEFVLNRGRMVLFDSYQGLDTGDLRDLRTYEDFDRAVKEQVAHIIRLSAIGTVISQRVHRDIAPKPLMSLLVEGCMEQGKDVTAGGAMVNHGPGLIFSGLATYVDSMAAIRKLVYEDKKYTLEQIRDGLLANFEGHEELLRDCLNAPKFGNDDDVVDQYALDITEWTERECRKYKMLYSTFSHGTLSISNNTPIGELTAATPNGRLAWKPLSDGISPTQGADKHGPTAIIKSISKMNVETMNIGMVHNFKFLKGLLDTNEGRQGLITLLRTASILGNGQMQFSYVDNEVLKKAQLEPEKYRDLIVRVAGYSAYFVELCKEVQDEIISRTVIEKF
Chain of CutC from Proteus mirabilis (B4EYG0 entry or part of it, further chain): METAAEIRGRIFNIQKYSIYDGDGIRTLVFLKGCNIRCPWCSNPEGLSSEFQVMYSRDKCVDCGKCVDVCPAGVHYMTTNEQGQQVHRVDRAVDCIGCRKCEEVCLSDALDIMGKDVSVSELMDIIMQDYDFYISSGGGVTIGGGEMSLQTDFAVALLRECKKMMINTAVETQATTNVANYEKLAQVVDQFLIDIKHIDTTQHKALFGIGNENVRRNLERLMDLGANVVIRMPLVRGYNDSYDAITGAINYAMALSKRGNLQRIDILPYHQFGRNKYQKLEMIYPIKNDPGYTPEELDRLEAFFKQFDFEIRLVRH

C#CC[N+](C)(C)CCO[C@H]1CO[C@H]2[C@@H]1OC[C@H]2O [Compound 74, N-(2-(((3S,3aR,6R,6aR)-6-hydroxyhexahydrofuro[3,2-b]furan-3-yl)oxy)ethyl)-N,N-dimethylprop-2-yn-1-aminium trifluoroacetate]
Assay 1- FaSSGF Stability: % Remaining at 1 hr [1]: 107.3%
Assay 3- Colonic Material Stability Assay % Remaining at 24 hr [2]: 99%
Assay 2- FaSSIF Stability: % Remaining at 4 hr [3]: 121.56%
IC50 [4]: ≥ 10 µM

C#CC[N+](C)(C)CC(=O)O[C@H]1CO[C@H]2[C@@H]1OC[C@H]2O.O=C([O-])C(F)(F)F [Compound 70, N-(2-(((3S,3aR,6R,6aR)-6-hydroxyhexahydrofuro[3,2-b]furan-3-yl)oxy)-2-oxoethyl)-N,N-dimethylprop-2-yn-1-aminium trifluoroacetate]
Assay 1- FaSSGF Stability: % Remaining at 1 hr [1]: 98.36%
Assay 3- Colonic Material Stability Assay % Remaining at 24 hr [2]: 47%
Assay 2- FaSSIF Stability: % Remaining at 4 hr [3]: 28.06%
IC50 [4]: ≥ 10 µM

Br.C#CC[N+](C)(C)CC(=O)O[C@@H]1CO[C@H]2[C@@H]1OC[C@@H]2O [Compound 73, N-(2-(((3R,3aR,6S,6aR)-6-hydroxyhexahydrofuro[3,2-b]furan-3-yl)oxy)-2-oxoethyl)-N,N-dimethylprop-2-yn-1-aminium bromide]
Assay 1- FaSSGF Stability: % Remaining at 1 hr [1]: 107.49%
Assay 3- Colonic Material Stability Assay % Remaining at 24 hr [2]: 44%
Assay 2- FaSSIF Stability: % Remaining at 4 hr [3]: 62.73%
IC50 [4]: ≥ 10 µM

C#CC[N+](C)(C)CCO[C@@H]1OC[C@@H](OC(C)=O)[C@H](OC(C)=O)[C@H]1OC(C)=O.[I-] [Compound 8, N,N-dimethyl-N-(2-(((3R,4S,5R)-3,4,5-triacetoxytetrahydro-2H-pyran-2-yl)oxy)ethyl)prop-2-yn-1-aminium iodideiodideiodideiodideiodide]
% change from vehicle control + choline diet (CutC/D enzyme; Table 4d, 100 mg/kg oral gavage days 1-3): −33%
Mean plasma TMAO (CutC/D enzyme; Table 4d, 100 mg/kg oral gavage days 1-3, plasma 20 h after last gavage): 12.5 µM
Assay 1- FaSSGF Stability: % Remaining at 1 hr [1]: 105.93%
Assay 3- Colonic Material Stability Assay % Remaining at 24 hr [2]: 17%
Assay 2- FaSSIF Stability: % Remaining at 4 hr [3]: 113.28%
IC50 [4]: ≥ 10 µM

CC(=O)OCC1OC(OCC[N+](C)(C)CCl)C(OC(C)=O)C(OC(C)=O)C1OC(C)=O.[I-] (stereo in doubt) [Compound 78, N-(chloromethyl)-N,N-dimethyl-2-(((2S,3S,4R,5S,6S)-3,4,5-triacetoxy-6-(acetoxymethyl)tetrahydro-2H-pyran-2-yl)oxy)ethan-1-aminium Iodide]
Cmax (in vivo; iv, 1 mg/kg): 8310 nM
% F (in vivo; po, 10 mg/kg): 1.91%
Cmax (in vivo; po, 10 mg/kg): 130 nM
bioavailability (in vivo; po, 10 mg/kg): 0.99%
Cmax ([5]; C57B3L/6, mouse, in vivo, po): 70 nM
Plasma Cmax ([5]; mouse, in vivo, po): Not

C[N+](C)(CF)CCO[C@@H]1O[C@H](CO)[C@@H](O)[C@H](O)[C@H]1O.[Cl-] [Compound 98, (fluoromethyl)dimethyl(2-{[(2R,3R,4S,5S,6R)-3,4,5-trihydroxy-6-(hydroxymethyl)oxan-2-yl]oxy}ethyl)azanium Chloride]
% change from vehicle control + choline diet (CutC/D enzyme; Table 4f, 3.70 mg/kg oral gavage days 1-3): −8%
Mean plasma TMAO (CutC/D enzyme; Table 4f, 3.70 mg/kg oral gavage days 1-3, plasma 20 h after last gavage): 29.7 µM
% change from vehicle control + choline diet (CutC/D enzyme; Table 4f, 11.0 mg/kg oral gavage days 1-3): 6%
Mean plasma TMAO (CutC/D enzyme; Table 4f, 11.0 mg/kg oral gavage days 1-3, plasma 20 h after last gavage): 34.3 µM
% change from vehicle control + choline diet (CutC/D enzyme; Table 4f, 36.6 mg/kg oral gavage days 1-3): −69%
Mean plasma TMAO (CutC/D enzyme; Table 4f, 36.6 mg/kg oral gavage days 1-3, plasma 20 h after last gavage): 10.1 µM
Cmax (in vivo; iv, 1 mg/kg): 23600 nM
Cmax (in vivo; po, 10 mg/kg): 306 nM
bioavailability (in vivo; po, 10 mg/kg): 0.72%
Cmax ([5]; C57B3L/6, mouse colon contents after oral dose of conjugate, compound measured = conjugate dosed, read-out: Colon Cmax): 21800 nM
Cmax ([5]; C57B3L/6, mouse plasma after oral dose of conjugate, compound measured = conjugate dosed, read-out: Plasma Cmax): 1300 nM

C#CC[N+](C)(C)CCO[C@@H]1O[C@H](COC(=O)CCC)[C@@H](OC(=O)CCC)[C@H](OC(=O)CCC)[C@H]1OC(=O)CCC.[I-] [Compound 1, N,N-dimethyl-N-(2-(((2R,3R,4S,5R,6R)-3,4,5-tris(butyryloxy)-6-((butyryloxy)methyl)tetrahydro-2H-pyran-2-yl)oxy)ethyl)prop-2-yn-1-aminium iodide]
Assay 1- FaSSGF Stability: % Remaining at 1 hr [1]: 84.79%
Assay 3- Colonic Material Stability Assay % Remaining at 24 hr [2]: 80%
Assay 2- FaSSIF Stability: % Remaining at 4 hr [3]: 30.79%
